Reference: PMC9312238, “Novel Organoselenium Redox Modulators with Potential Anticancer, Antimicrobial, and Antioxidant Activities” (Antioxidants, 2022)
Converted amounts (≈) assume the structure as drawn. Read-outs that look alike come from different tables or passages of the source.

What was measured:
Format in all cases: cell-based
Candida albicans = assay: MIC by microdilution, C. albicans; conditions: read-out: MIC (μM) C. albicans
Experimental: (§1) The antimicrobial activities of the OSe compounds were evaluated against C. albicans yeast, as well as E. coli and S. bacteria, employing the agar well diffusion assay. Furthermore, the MICs (in µM) were determined by the microdilution method according to the reported protocol. More details are in the Supporting Information. […]
(§2) 1.1.1. The antimicrobial activity
(§3) The antimicrobial activities of the OSe compounds were evaluated against C. albicans yeast as well as E. coli gram-negative and S. aureus gram-positive bacteria employing the agar well diffusion assay. Briefly, a concentration of 1 mM was prepared for each compound by dissolving in DMSO. Paper discs of standard size […] were steri-lized in an autoclave and soaked in 20 µL of the test compounds, and placed in the Petri dishes, which in turn contain a nutrient media (agar 20 g, peptone 5 g, and beef extract 3 g) seeded with the dedicated strain. Incubation lasted for 24 h at 36
(§4) Furthermore, the MICs (in µM) were determined by the microdilution method according to the reported protocol. […]
(§5) Inhibition%= (Ablank-Asample)/(Ablank)*100. (1)

Staphylococcus aureus = assay: MIC by microdilution, S. aureus
Experimental: as §1, §2, §3, §4, §5

Escherichia coli = assay: MIC by microdilution, E. coli
Experimental: The antimicrobial activities of the OSe compounds were evaluated against C. albicans yeast, as well as E. coli and S. bacteria, employing the agar well diffusion assay. Furthermore, the MICs (in µM) were determined by the microdilution method according to the reported protocol. More details are in the Supporting Information.
1.1. The biological assays
1.1.1. The anticancer activity
The breast adenocarcinoma (MCF-7), Hepatocellular carcinoma (HEPG-2), and nor-mal fibroblast (WI-38) cells were obtained from ATCC via Holding company for biological products and vaccines (VACSERA), Cairo, Egypt. The reagents RPMI-1640 medium, MTT, DMSO, and fetal bovine serum was obtained from Sigma Aldrich. Dulbecco’s modified Eagle’s medium was used as the culture medium for the cells, and the cytotoxicity was evaluated using the reported MTT assay. […]
Cell lines were cultured in RPMI-1640 medium with 10% fetal bovine serum. […] The colorimetric assay is measured and recorded at an absorbance of 570 nm using a plate reader (EXL 800, USA). The percentage of the relative cell viability was calculated as (A570 of treated samples/A570 of the untreated sample) X 100. […]
The antimicrobial activities of the OSe compounds were evaluated against C. albicans yeast as well as E. coli gram-negative and S. aureus gram-positive bacteria employing the agar well diffusion assay. […]

Molecule	MIC (Candida albicans; microdilution) [µM]	MIC (μM) S. aureus (Staphylococcus aureus; microdilution) [µM]	MIC (μM) E. coli (Escherichia coli; microdilution) [µM]	MIC (Candida albicans; Candida albicans) [µM]	MIC (Staphylococcus aureus; Staphylococcus aureus, read-out: MIC (μM) S. aureus) [µM]	MIC (Escherichia coli; Escherichia coli, read-out: MIC (μM) E. coli) [µM]
2-((4-(2-(3-hydroxynaphthalen-1(4H)-ylidene)hydrazinyl)phenyl)selanyl)-N-phenylacetamide [Compound 9]	2	1	0.5			
Nc1ccc([Se]CC(=O)N[C@@H](Cc2c[nH]c3ccccc23)C(=O)O)cc1 [Compound 6, (2-((4-aminophenyl)selanyl)acetyl)tryptophan]				8 (≈ 3.33 µg/mL)	2 (≈ 0.833 µg/mL)	1 (≈ 0.416 µg/mL)
